The term IC50 denotes the concentration at which inhibition is half-maximal. Broadly, the EC50 is the concentration needed to bring the measured effect to its halfway point. The AC50 is the midpoint of the concentration-response curve, whichever way the signal moves.

Activity calls are given as the source filed them.

This passage reports IC50, EC50 and AC50 results from ChEMBL document CHEMBL1201862, “PubChem BioAssay data set” (2004).

Assay [1] concerns the target T1, Rac GTPase-activating protein 1 (Homo sapiens, UniProt Q9H0H5).
T1 sequence (Q9H0H5 whole entry): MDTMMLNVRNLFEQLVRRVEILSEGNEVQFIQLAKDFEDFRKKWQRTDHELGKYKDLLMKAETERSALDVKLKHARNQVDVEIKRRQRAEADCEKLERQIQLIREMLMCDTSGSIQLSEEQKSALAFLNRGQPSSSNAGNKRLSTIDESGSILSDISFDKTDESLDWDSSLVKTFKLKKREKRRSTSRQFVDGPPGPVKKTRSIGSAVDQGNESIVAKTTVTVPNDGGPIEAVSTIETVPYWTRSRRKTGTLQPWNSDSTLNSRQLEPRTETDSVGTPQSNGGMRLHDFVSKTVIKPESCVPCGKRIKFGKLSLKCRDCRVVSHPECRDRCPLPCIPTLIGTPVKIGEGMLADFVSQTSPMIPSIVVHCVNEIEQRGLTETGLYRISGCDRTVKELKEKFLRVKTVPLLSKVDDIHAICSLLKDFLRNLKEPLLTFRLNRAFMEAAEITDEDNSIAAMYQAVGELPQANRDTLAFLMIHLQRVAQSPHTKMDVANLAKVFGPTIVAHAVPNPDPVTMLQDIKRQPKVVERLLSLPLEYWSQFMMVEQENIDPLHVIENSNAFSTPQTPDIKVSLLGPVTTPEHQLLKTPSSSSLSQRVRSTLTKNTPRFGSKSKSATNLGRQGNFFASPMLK
In words: MgcRacGAP GTPase-activating activity inhibitors, confirmation, biochemical, ADP Hunter fluorescence, primary and confirmatory (AID 624330). The format is functional.

Assay [2] is described as follows: growth suppression of PTEN-null colon cells, dose response, cell-based, HCT116 PTEN knockout (AID 1047).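 Also: HCT116 colon tumor cells with PTEN knocked out; cells exposed to compound for 60 hours before readout; potency for loss of cell viability measured by luminescence.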 Format: functional.
Assay [3] is described as follows: growth suppression of beta-catenin-knockout colon cells, dose response, cell-based, HCT116, human colon tumor (AID 1045).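 Also: HCT116 colon tumor cells with beta catenin knocked out; cells exposed to compound for 60 hours.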 Format: functional.
Assay [4] in a line: HepG2 cell cytotoxicity, dose response, cytotoxicity control for Shn3 inhibitor project, CellTiter-Glo, cherry-picked (AID 624134). Format: functional, cell-based. Background: ATP-based viability assays read luminescence as a measure of living cells.
A short description of assay [5]: control 3'UTR Renilla luciferase suppression, dose response, counter-screen for Shn3 inhibitor project, cell-based, Clone20-Shn3RL, cherry-picked (AID 624133). The format is functional. For orientation: A counterscreen serves to expose hits that act by an unwanted route or on another target.
Assay [6] in a line: Shn3 3'UTR reporter inhibitors, dose response, cell-based, Clone20 osteoblasts, firefly luciferase, cherry-picked (AID 624132).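 Also: firefly luciferase luminescence from reporter carrying the Shn3 3'UTR in osteoblasts.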 Format: functional.
Assay [7] has as its target T2, Streptokinase A (Streptococcus pyogenes serotype M1, UniProt P10520).
T2 sequence (P10520 whole entry): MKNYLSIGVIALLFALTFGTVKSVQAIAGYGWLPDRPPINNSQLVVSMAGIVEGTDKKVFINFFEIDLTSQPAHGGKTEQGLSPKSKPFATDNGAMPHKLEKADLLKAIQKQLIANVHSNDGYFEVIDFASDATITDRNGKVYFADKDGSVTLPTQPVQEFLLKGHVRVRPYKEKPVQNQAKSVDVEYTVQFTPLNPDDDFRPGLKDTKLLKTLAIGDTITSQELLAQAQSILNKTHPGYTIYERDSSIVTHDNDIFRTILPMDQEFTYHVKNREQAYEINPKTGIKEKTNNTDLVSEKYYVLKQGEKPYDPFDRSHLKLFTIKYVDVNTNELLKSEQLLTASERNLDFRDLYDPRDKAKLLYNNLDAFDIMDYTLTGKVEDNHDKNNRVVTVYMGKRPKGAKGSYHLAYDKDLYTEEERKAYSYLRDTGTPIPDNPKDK
Briefly: S. pyogenes streptokinase expression inhibitors, potency, dose response, plasminogen activation absorbance, OD405 (AID 1914).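 Also: secreted streptokinase activity via plasminogen activation per viability signal from cell pellet.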 The format is functional, Streptococcus pyogenes M1 GAS.

Assay [8] relates to H9c2. In words: cells. Format: functional, cell-based. Conditions: Rattus norvegicus, H9c2, Myocardium.
The test system of assay [9] is Streptococcus sp. 'group A'. Briefly: growth inhibition of control SK(-) GAS strain, dose response, counter-screen for streptokinase expression inhibitor project, luminescence, kanamycin, BacTiterGlo, confirmation (AID 1900). Format: functional, organism-based.
Assay [10] deals with Cytochrome P450 3A4 (Homo sapiens, UniProt P08684).
Sequence of Cytochrome P450 3A4 (P08684 whole entry): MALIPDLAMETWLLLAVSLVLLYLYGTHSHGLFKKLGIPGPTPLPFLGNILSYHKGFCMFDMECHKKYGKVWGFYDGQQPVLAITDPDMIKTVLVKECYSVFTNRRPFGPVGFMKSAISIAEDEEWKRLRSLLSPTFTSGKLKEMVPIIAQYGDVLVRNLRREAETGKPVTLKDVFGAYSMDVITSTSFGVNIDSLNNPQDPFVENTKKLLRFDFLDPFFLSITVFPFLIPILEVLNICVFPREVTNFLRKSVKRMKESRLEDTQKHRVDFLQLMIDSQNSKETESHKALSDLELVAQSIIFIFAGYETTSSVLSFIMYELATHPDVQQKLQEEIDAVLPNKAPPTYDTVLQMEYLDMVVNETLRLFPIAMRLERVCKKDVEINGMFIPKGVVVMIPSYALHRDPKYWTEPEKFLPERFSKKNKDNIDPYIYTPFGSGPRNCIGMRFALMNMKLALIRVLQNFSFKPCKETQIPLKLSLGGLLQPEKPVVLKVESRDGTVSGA
For assay [11], the system named is Streptococcus. In words: Group A Streptococcus viability loss, dose response, counter-screen for streptokinase expression inhibitor project, luminescence, BacTiterGlo (AID 1915).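 Also: potency for reduction of bacterial viability or growth.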 The format is functional, organism-based.
In assay [12] the target is Cytochrome P450 2C19 (Homo sapiens, UniProt P33261). Briefly: Cytochrome panel assay with activity outcomes. Panel member name: p450-cyp2c19 Compounds with AC50 equal or less than 10 uM are considered active. Format: functional. Particulars: read-out: AC50.
Sequence of Cytochrome P450 2C19 (P33261 whole entry): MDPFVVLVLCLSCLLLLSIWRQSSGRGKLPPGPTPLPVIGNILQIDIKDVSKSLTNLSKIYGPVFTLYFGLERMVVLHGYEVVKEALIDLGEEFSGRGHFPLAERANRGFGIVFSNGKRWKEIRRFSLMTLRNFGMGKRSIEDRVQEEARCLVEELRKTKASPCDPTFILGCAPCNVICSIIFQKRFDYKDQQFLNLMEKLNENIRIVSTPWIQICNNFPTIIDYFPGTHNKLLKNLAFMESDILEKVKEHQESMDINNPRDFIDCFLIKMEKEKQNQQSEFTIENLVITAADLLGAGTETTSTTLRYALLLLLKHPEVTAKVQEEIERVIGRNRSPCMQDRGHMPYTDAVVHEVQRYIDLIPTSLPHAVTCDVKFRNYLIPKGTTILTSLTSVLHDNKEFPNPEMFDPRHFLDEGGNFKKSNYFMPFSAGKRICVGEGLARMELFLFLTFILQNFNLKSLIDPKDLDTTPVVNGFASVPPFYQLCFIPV
Assay [13] is described as follows: C. albicans growth with fluconazole, confirmation, fluorescence, retest (AID 2467). The format is functional, cell-based.
Assay [14] is described as follows: NIH-3T3 fibroblast cytotoxicity, dose response, cytotoxicity control, cell-based, fluorescence, Alamar Blue, secondary assay (AID 2327).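 Also: NIH-3T3 mouse fibroblasts cultured with fluconazole at 8 µg/mL.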 The format is functional. For orientation: Alamar Blue is a resazurin reagent that responds to reducing activity.

Regarding `Cc1ccc(CN2CCN(CC3CC4C=CC3C4)CC2)cc1` (configuration not stated), in assay [1], the IC50 was 113 µM (active).
For `CC(C)CCOc1ccc(-c2c(=O)n(OCc3ccc([N+](=O)[O-])cc3)c3ccccc3[n+]2[O-])cc1`, the EC50 was 20.7 µM (active) in [2] and 28.3 µM (active) in assay [3].
`Cc1cc2cc(CN(CC3CCCO3)C(S)=Nc3ccccc3)c(O)nc2cc1C` (configuration not stated): the AC50 is 48.9 µM (active) in [4], 9.59 µM (active) in assay [5] and 2.91 µM (active) in assay [6]. The EC50 in assay [2] is 4.38 µM (active); in assay [3] it was 5.3 µM (active).
For `COc1cc(NC(=O)c2cc3nc(-c4ccccc4)cc(-c4ccccc4)n3n2)cc(OC)c1OC`, the values for the EC50 in assay [7], in [9] and in assay [11] were > 150 µM (not active), 11.7 µM (active) and > 150 µM (not active), respectively. For the same molecule, in assay [8], the IC50 was 8.62 µM (active). Besides, in assay [10], the half-maximal activity concentration (AC50) is 10 µM (inconclusive).
For the molecule `c1ccc(CNc2ccc(N3CCOCC3)cc2)cc1`, the half-maximal inhibitory concentration (IC50) in assay [1] was 8.18 µM (active).
`CC(=O)/C=C/c1ccc2ccccc2n1`: the AC50 in assay [12] is 39.8 µM (inconclusive). The EC50 in assay [2] is 2.58 µM (active); in assay [3], 2.42 µM (active).
Turning to `C=CCc1cccc(/C=N/c2cc(Br)ccc2O)c1O`, in [1], the concentration for half-maximal inhibition (IC50) is 14.7 µM (active).
In the case of `COc1cc(C(=O)N/N=C/c2ccc(OC(=O)c3ccccc3Cl)c(OC)c2)ccc1O`, the EC50 was > 150 µM (not active) in [7], 6.17 µM (active) in assay [9] and 8.59 µM (active) in assay [11].
For `CCOC(=O)c1c(NC(=O)CCS(=O)(=O)c2ccccc2)sc2c1CCN(C)C2` the same measures were > 150 µM (not active), > 150 µM (not active) and > 150 µM (not active).
On to `CC1CN(c2nc(-c3ccc(Br)cc3)nnc2-c2ccccc2)CC(C)N1` (configuration not stated), for which the EC50 was 11.3 µM (active) in [2] and 10 µM (active) in assay [3].
In the case of `CCOc1ccccc1NC(=O)C(NCCN(C)C)c1ccccc1` (configuration not stated), the IC50 in assay [1] was 91.1 µM (active).
Turning to `Cc1ccc(C)c(C(=O)COc2ccccc2[N+](=O)[O-])c1`, the EC50 in [2] is 10.2 µM (active); in [3], 9.49 µM (active).
As for `CCc1sc(C(=O)Nc2nccs2)cc1C`, the EC50 in assay [7], in [9] and in assay [11] was > 150 µM (not active) each time.
As for `CCOC(=O)c1cnc(-n2cc(C)cn2)nc1Nc1ccccc1OCC`, the EC50 in assay [7] is > 150 µM (not active); in [9], 4.47 µM (active); in assay [13], > 38 µM (not active); in [14], 44.2 µM (active); in assay [11], 6.46 µM (active).
